Source: publication PMC11882969 (Nature Communications, 2025)
Several values for one entry are separate records, joined by “and”; a condition that tells them apart may be missing. Equal entries are not always repeated. Where two headings read alike, the source gives them in different places.

Key:
mice [1] = assay: Hot plate, 52 °C; format: in vivo, mouse
mice [2] = assay: Hargreaves radiant heat test; format: in vivo, mouse
mice [3] = assay: Rotarod test; format: in vivo, mouse
mice [4] = assay: Conditioned place preference; format: in vivo, mouse; details: for Individual animal scores (FigS11e): test not printed on the sheet; for conditioned place preference: drug-paired vs vehicle-paired chamber
Experimental: Briefly, mice were first habituated to the test apparatus, twice, and their preference for each chamber recorded for 30 min (Pretest). Two conditioning days followed in which mice received the vehicle control or the compound, and 30 min later restricted for 30 min in the preferred or non-preferred chamber, respectively. On day 5 (Test day), mice were allowed to roam freely between the 3 chambers of the apparatus and their preference for each chamber recorded for 30 min. To calculate the CPP score, we subtracted the time spent in each chamber of the box on the Pretest day from that of the Test day (CPP score = Test - Pretest).

mice [5] = assay: Acetone test, cold allodynia after spared nerve injury; format: in vivo, mouse
Experimental: Mice were placed on a wire mesh and thirty min after an i.p. injection of the compounds we applied a drop (50 μL) of acetone on the ventral aspect of the hindpaw, 5 times every 30 sec. We recorded the number of nocifensive behaviors (paw lifts/licks/shakes/bites) over the 5 applications.

mice [6] = assay: Catalepsy test, vertical wire mesh; format: in vivo, mouse
Experimental: Thirty min after an i.p. injection of the compounds, mice were placed on a vertical wire mesh and the latency to move all four paws was recorded.

mice [7] = test system: mice
Experimental: For all behavioral tests, the experimenter was always blind to treatment. Animals were first habituated for 30-60 min in Plexiglas cylinders and then tested 30 min after i.p. or i.t. injection of the compounds. The thermal (Hargreaves, hotplate and tail flick) and ambulatory (rotarod) tests were conducted as described[96]. Briefly, hindpaw thermal sensitivity was measured with a radiant heat source (Hargreaves) or on a hotplate at 52 °C. For the tail flick assay, sensitivity was measured by immersing the tail into a 50 °C water bath. For the ambulatory (rotarod) test, before testing with any compound, mice underwent three trainings on three consecutive days until they reach 300 sec. Each training has three sessions of five min each. Therapeutic window was calculated as the ratio of the minimum dose of side effect phenotype to the minimum dose of analgesic phenotype.

[8] = Pharmacokinetics: plasma, brain, CSF; details: 0.2 mg/kg i.p., CD-1 mice
in vitro = details: mouse, plasma
Experimental: The reactions were stopped by adding 240 μL 90% acetonitrile containing internal standard with subsequent plasma proteins sedimentation by centrifuging at 5796 g for 5 min. Supernatants were analyzed by the HPLC system coupled with a tandem mass spectrometer. The percentage of the test compounds remaining after incubation in plasma and their half-lives (T1/2) were calculated.

mice [9] = assay: Tail flick, 50 °C water bath; format: in vivo, mouse; details: for analgesic response normalised to baseline, WT vs CB1R KO (Figure5d), individual animals: 10 mg/kg
[10] = 0.2 mg/kg, individual animals, FigS11b

## CCCCCCC(C)(C)c1ccc([C@@H]2C[C@H](O)CC[C@H]2CCCO)c(O)c1 [CP-55,940, reference compound]
Mice [1]; [10]
  Jump: 18 and 0 (2×) and 4 (2×)
  Paw lick: 0 (4×) and 10
  Paw shake: 0 (2×) and 6 and 12 and 8
  Paw withdrawal: 18 and 34 and 32 and 36 and 64
Mice [1]; Dose 0.2 mg/kg
  hot plate response normalised to baseline (Figure4b), individual animals: 98.1 and 121.1 and 123.4 and 122.6 and 97.5
Mice [1]; Dose 0.5 mg/kg
  hot plate response normalised to baseline (Figure4b), individual animals: 256.6 and 226.6 and 210.5 and 222.4 and 213.7
Mice [1]; i.p., 30 min after injection
  lowest dose with significantly increased hot plate latency: 0.5 mg/kg
Mice [2]; i.p., 30 min after injection
  lowest dose with significantly increased latency, Hargreaves: 0.2 mg/kg
Mice [3]; Dose 0.1 mg/kg
  rotarod performance (Figure6b), individual animals: 284 and 282 and 285 and 300
Mice [3]; Dose 0.2 mg/kg
  rotarod performance (Figure6b), individual animals: 261 and 257 and 210 and 300 and 91 and 161 and 258 and 208 and 236 and 275
Mice [3]; Dose 1.0 mg/kg
  rotarod performance (Figure6b), individual animals: 200 and 204 and 173 and 236 and 203
Mice [3]; rotarod and open field
  motor impairment at analgesic doses: caused motor impairment in both the rotarod and open field tests
Mice [4]; 0.5 mg/kg
  Individual animal scores (FigS11e): -18 and -21 and -54 and 119 and -213 and 8 and -326 and -238
Mice [4]
  conditioned place preference: may actually induce some aversion
Mice [5]; Dose 0.2 mg/kg
  acetone test response after spared nerve injury (Figure5b), individual animals: 36 and 40 and 48 and 76
Mice [5]; spared nerve injury, i.p.
  effect on acetone-induced nocifensive behaviors: strongly reduced spared nerve injury-induced cold allodynia
Mice [6]; 0.2 mg/kg dose
  catalepsy (Figure6c), individual animals: 17 and 15 and 13 and 3 and 5
Mice [6]; 0.5 mg/kg dose
  catalepsy (Figure6c), individual animals: 6.8 and 5 (2×) and 30 and 5.6 and 4 and 2 (2×) and 7 and 8.5
Mice [6]; 1 mg/kg dose
  catalepsy (Figure6c), individual animals: 15.3 and 23.3 and 17.7 and 28 and 15.7
Mice [6]; i.p.
  dose at which catalepsy starts: 0.2 mg/kg
Mice [7]; Figure 6e, vs rotarod
  therapeutic window, Acetone: 1
  therapeutic window, Hot Plate: 0.4
  therapeutic window, Tail Flick: 0.4
Mice [7]; Figure 6f
  therapeutic window, analgesia vs catalepsy: no window between analgesia and catalepsy
Mice [7]; Figure 6d, vs open field
  therapeutic window, Acetone: 1
  therapeutic window, Hot Plate: 0.4
  therapeutic window, Tail Flick: 0.4
[8]
  brain Cmax: 19.2 ng/g
  brain T1/2: 127 min

## CCCCCCC(C)(C)c1ccc([C@@H]2C[C@H](O)CC[C@H]2CCCO)c(O)c1 [CP-55940]
Mice [2]; Dose 0.2 mg/kg, test not printed on the sheet
  Dose response, individual animals (FigS11a): 256.9 and 109.7 and 71.66 and 121.4 and 287.7

## CC(C)[N+](C)(CCOC(=O)C1c2ccccc2Oc2ccccc21)C(C)C [Propantheline, reference compound]
In vitro
  half-life at 1 µM: 28 min
  remaining at 20 min, 1 µM: 75%
  remaining at 40 min, 1 µM: 50%
  remaining at 1 h, 1 µM: 31%
  remaining at 2 h, 1 µM: 6%

## CN1CC[C@]23c4c5ccc(O)c4O[C@H]2[C@@H](O)C=C[C@H]3[C@H]1C5 [morphine, reference compound]
Mice [9]; CB1R KO mice
  analgesic response normalised to baseline, WT vs CB1R KO (Figure5d), individual animals: 186.205 and 193.839 and 225.055 and 193.021 and 200.382
Mice [9]; Morphine 3 mg/kg, individual animals, sheet Figure7b, test not given
  Response relative to baseline (baseline about 100): 153.4 and 95 and 153.1 and 101.6 and 124.1 and 132.6 and 140.4 and 96.4 and 125 and 194 and 137 and 131 and 126 and 149.7 and 136.2
Mice [9]; WT mice
  analgesic response normalised to baseline, WT vs CB1R KO (Figure5d), individual animals: 138.803 and 169.174 and 209.668 and 177.834 and 174.541
Mice [4]; 20 mg/kg
  Individual animal scores (FigS11e): 125 and 92 and 189 and -5 and 874 and 419 and 158 and 182
Mice [4]
  conditioned place preference: significantly increased their preference
